# Measured values reported in ChEMBL document CHEMBL1201862, “PubChem BioAssay data set” (2004).
#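 Results reflect a 48-hour exposure of cells in 96-well plates to compound at five concentrations. GI50 is the concentration that inhibits growth by half.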 Activity calls are given as the source filed them. Cut-off read from the data, not from the text of the source: active = GI50 up to about 1.1 µM and inactive = higher.
# Columns and labels:
# Assay in all cases: DTP human tumour cell line panel, 48 h
# [1] = system: KM-20L2
# [2] = system: SNB-19
# [3] = system: CCRF-CEM
# [4] = system: OVCAR-4
# [5] = system: HOP-62
# [6] = system: CAKI-1
# [7] = system: SF-295
# [8] = system: M14
# [9] = system: HCT-15
# [10] = system: DLD-1
# [11] = system: HCT-116
# [12] = system: SF-539
# [13] = system: A549
# [14] = system: OVCAR-3
# [15] = system: HL-60
# [16] = system: XF498
# [17] = system: TK-10
# [18] = system: SK-OV-3
# [19] = system: OVCAR-5
# [20] = system: UACC-257
# [21] = system: SF-268
# [22] = system: SW-620
# [23] = system: HOP-92
# [24] = system: DMS-273
# [25] = system: NCI-H23
# [26] = system: SNB-78
# [27] = system: COLO 205
# [28] = system: DMS-114
# [29] = system: M19-MEL
# [30] = system: UO-31
# [31] = system: SK-MEL-28
# [32] = system: HOP-18
# [33] = system: SN12C
# [34] = system: NCI-H226
# [35] = system: 786-0
# [36] = system: IGROV-1
# [37] = system: OVCAR-8
# [38] = system: Malme-3M
# [39] = system: SK-MEL-2
# [40] = system: NCI-H460
# [41] = system: SNB-75
# [42] = system: NCI-H522
# [43] = system: KM12
# [44] = system: EKVX
# [45] = system: SK-MEL-5
# [46] = system: LXFL 529
# [47] = system: RXF 631
# [48] = system: U-251
# [49] = system: ACHN
# [50] = system: A498
# [51] = system: UACC-62
# [52] = system: HT-29
# [53] = system: K562
# [54] = system: RPMI-8226
# [55] = system: HCC 2998
# [56] = system: MOLT-4
# [57] = system: SR
# [58] = system: RXF 393
# [59] = system: LOX IMVI
structure (smiles),measurement,setting,value
NC(=O)n1ncc(Cl)c(Cl)c1=O,GI50,[1],> 100 µM (inactive)
same,GI50,[2],> 100 µM (inactive)
same,GI50,[3],> 100 µM (inactive)
same,GI50,[4],> 100 µM (inactive)
same,GI50,[5],> 100 µM (inactive)
same,GI50,[6],> 100 µM (inactive)
same,GI50,[7],> 100 µM (inactive)
same,GI50,[8],> 100 µM (inactive)
same,GI50,[9],> 100 µM
same,GI50,[10],> 100 µM (inactive)
same,GI50,[11],> 100 µM (inactive)
same,GI50,[12],> 100 µM (inactive)
same,GI50,[13],> 100 µM (inactive)
same,GI50,[14],> 100 µM (inactive)
same,GI50,[15],95.3 µM (inactive)
same,GI50,[16],> 100 µM (inactive)
same,GI50,[17],> 100 µM (inactive)
same,GI50,[18],> 100 µM (inactive)
same,GI50,[19],> 100 µM (inactive)
same,GI50,[20],> 100 µM (inactive)
same,GI50,[21],> 100 µM (inactive)
same,GI50,[22],> 100 µM (inactive)
same,GI50,[23],> 100 µM (inactive)
same,GI50,[24],> 100 µM (inactive)
same,GI50,[25],> 100 µM (inactive)
same,GI50,[26],> 100 µM (inactive)
same,GI50,[27],> 100 µM (inactive)
same,GI50,[28],> 100 µM (inactive)
same,GI50,[29],> 100 µM (inactive)
same,GI50,[30],> 100 µM (inactive)
same,GI50,[31],> 100 µM (inactive)
same,GI50,[32],> 100 µM (inactive)
same,GI50,[33],> 100 µM (inactive)
same,GI50,[34],> 100 µM (inactive)
same,GI50,[35],> 100 µM (inactive)
same,GI50,[36],> 100 µM (inactive)
same,GI50,[37],> 100 µM (inactive)
same,GI50,[38],> 100 µM (inactive)
same,GI50,[39],> 100 µM (inactive)
same,GI50,[40],> 100 µM (inactive)
same,GI50,[41],> 100 µM (inactive)
same,GI50,[42],> 100 µM (inactive)
same,GI50,[43],> 100 µM (inactive)
same,GI50,[44],> 100 µM (inactive)
same,GI50,[45],> 100 µM (inactive)
same,GI50,[46],> 100 µM (inactive)
same,GI50,[47],> 100 µM (inactive)
same,GI50,[48],> 100 µM (inactive)
same,GI50,[49],> 100 µM (inactive)
same,GI50,[50],> 100 µM (inactive)
same,GI50,[51],> 100 µM (inactive)
same,GI50,[52],> 100 µM (inactive)
same,GI50,[53],> 100 µM (inactive)
COc1ccc2c3c(n(Cc4ccccc4)c(=O)c2c1)-c1cc(OC)c(OC)cc1C3C (centres undefined),GI50,[1],25.6 µM (inactive)
same,GI50,[2],21.7 µM (inactive)
same,GI50,[3],> 89.5 µM (inactive)
same,GI50,[4],6.61 µM (inactive)
same,GI50,[5],14.8 µM (inactive)
same,GI50,[54],14.5 µM (inactive)
same,GI50,[6],28.1 µM (inactive)
same,GI50,[7],11.6 µM (inactive)
same,GI50,[8],44 µM (inactive)
same,GI50,[9],28.1 µM
same,GI50,[10],50.9 µM (inactive)
same,GI50,[55],36.6 µM (inactive)
same,GI50,[11],14.7 µM (inactive)
same,GI50,[12],7.52 µM (inactive)
same,GI50,[13],18.6 µM (inactive)
same,GI50,[14],15 µM (inactive)
same,GI50,[15],> 46.8 µM (inactive)
same,GI50,[16],7.96 µM (inactive)
same,GI50,[17],> 54.3 µM (inactive)
same,GI50,[18],18.8 µM (inactive)
same,GI50,[19],> 28.4 µM (inactive)
same,GI50,[20],69.8 µM (inactive)
same,GI50,[21],9.91 µM (inactive)
same,GI50,[22],35.7 µM (inactive)
same,GI50,[23],14.4 µM (inactive)
same,GI50,[24],7.6 µM (inactive)
same,GI50,[25],6.92 µM (inactive)
same,GI50,[56],8.32 µM (inactive)
same,GI50,[26],57.7 µM (inactive)
same,GI50,[27],41.6 µM (inactive)
same,GI50,[28],23 µM (inactive)
same,GI50,[29],31.4 µM (inactive)
same,GI50,[57],5.12 µM (inactive)
same,GI50,[30],22.2 µM (inactive)
same,GI50,[31],43.5 µM (inactive)
same,GI50,[32],28.3 µM (inactive)
same,GI50,[58],12.3 µM (inactive)
same,GI50,[33],14.7 µM (inactive)
same,GI50,[34],17.9 µM (inactive)
same,GI50,[35],7.45 µM (inactive)
same,GI50,[36],37.6 µM (inactive)
same,GI50,[37],19.8 µM (inactive)
same,GI50,[38],15.6 µM (inactive)
same,GI50,[39],17 µM (inactive)
same,GI50,[40],4.71 µM (inactive)
same,GI50,[41],13.6 µM (inactive)
same,GI50,[42],9.08 µM (inactive)
same,GI50,[43],23.3 µM (inactive)
same,GI50,[44],10.6 µM (inactive)
same,GI50,[45],12.2 µM (inactive)
same,GI50,[46],10.4 µM (inactive)
same,GI50,[47],15.1 µM (inactive)
same,GI50,[48],5.69 µM (inactive)
same,GI50,[49],11.5 µM (inactive)
same,GI50,[50],30.5 µM (inactive)
same,GI50,[51],18.7 µM (inactive)
same,GI50,[52],25.7 µM (inactive)
same,GI50,[59],14.3 µM (inactive)
same,GI50,[53],9.89 µM (inactive)
COc1ccc(/C=N\O[Si](C)(C)C(C)(C)C)cc1O[Si](C)(C)C(C)(C)C,GI50,[1],28.8 µM (inactive)
same,GI50,[2],18.9 µM (inactive)
same,GI50,[3],21.6 µM (inactive)
same,GI50,[4],19 µM (inactive)
same,GI50,[5],20.2 µM (inactive)
same,GI50,[54],17.9 µM (inactive)
same,GI50,[6],25.1 µM (inactive)
same,GI50,[7],17.2 µM (inactive)
same,GI50,[8],20 µM (inactive)
same,GI50,[9],18.2 µM
same,GI50,[10],17.9 µM (inactive)
same,GI50,[55],17.3 µM (inactive)
same,GI50,[11],15.7 µM (inactive)
same,GI50,[12],18.5 µM (inactive)
same,GI50,[13],18 µM (inactive)
same,GI50,[14],17.1 µM (inactive)
same,GI50,[15],19.6 µM (inactive)
same,GI50,[16],18.4 µM (inactive)
same,GI50,[17],20.4 µM (inactive)
same,GI50,[18],30.6 µM (inactive)
same,GI50,[19],22.4 µM (inactive)
same,GI50,[20],20.8 µM (inactive)
same,GI50,[21],21.5 µM (inactive)
same,GI50,[22],18.7 µM (inactive)
same,GI50,[23],22.6 µM (inactive)
same,GI50,[24],19.3 µM (inactive)
same,GI50,[25],19.4 µM (inactive)
same,GI50,[56],17.4 µM (inactive)
same,GI50,[26],19.3 µM (inactive)
same,GI50,[27],22.5 µM (inactive)
same,GI50,[28],18.5 µM (inactive)
same,GI50,[29],18.2 µM (inactive)
same,GI50,[30],14.7 µM (inactive)
same,GI50,[32],15.3 µM (inactive)
same,GI50,[58],14.3 µM (inactive)
same,GI50,[33],19.2 µM (inactive)
same,GI50,[35],16.7 µM (inactive)
same,GI50,[36],18.9 µM (inactive)
same,GI50,[37],22.8 µM (inactive)
same,GI50,[38],17.6 µM (inactive)
same,GI50,[39],16.5 µM (inactive)
same,GI50,[40],20.6 µM (inactive)
same,GI50,[41],22.3 µM (inactive)
same,GI50,[43],17.6 µM (inactive)
same,GI50,[44],21 µM (inactive)
same,GI50,[45],17.3 µM (inactive)
same,GI50,[46],16.1 µM (inactive)
same,GI50,[47],21.1 µM (inactive)
same,GI50,[48],19.7 µM (inactive)
same,GI50,[49],18 µM (inactive)
same,GI50,[50],16.7 µM (inactive)
same,GI50,[51],18.8 µM (inactive)
same,GI50,[52],17.7 µM (inactive)
same,GI50,[59],20 µM (inactive)
same,GI50,[53],18.3 µM (inactive)
c1ccc2c(CNCCCCCCNCc3cccc4ccccc34)cccc2c1,GI50,[1],2.61 µM (inactive)
same,GI50,[3],3.06 µM (inactive)
same,GI50,[4],14.7 µM (inactive)
same,GI50,[5],16.1 µM (inactive)
same,GI50,[54],2.27 µM (inactive)
same,GI50,[6],7.38 µM (inactive)
same,GI50,[7],12.2 µM (inactive)
same,GI50,[8],1.79 µM (inactive)
same,GI50,[9],6.75 µM
same,GI50,[10],3.78 µM (inactive)
same,GI50,[11],1.99 µM (inactive)
same,GI50,[12],1.82 µM (inactive)
same,GI50,[13],17.8 µM (inactive)
same,GI50,[14],16.4 µM (inactive)
same,GI50,[15],1.46 µM (inactive)
same,GI50,[16],2.42 µM (inactive)
same,GI50,[17],12.6 µM (inactive)
same,GI50,[18],17.5 µM (inactive)
same,GI50,[19],15.9 µM (inactive)
same,GI50,[20],1.74 µM (inactive)
same,GI50,[21],11.9 µM (inactive)
same,GI50,[22],4.06 µM (inactive)
same,GI50,[23],6.14 µM (inactive)
same,GI50,[24],13.6 µM (inactive)
same,GI50,[25],16.4 µM (inactive)
same,GI50,[56],3.04 µM (inactive)
same,GI50,[26],9.44 µM (inactive)
same,GI50,[27],1.66 µM (inactive)
same,GI50,[28],7.45 µM (inactive)
same,GI50,[29],4.2 µM (inactive)
same,GI50,[57],2.14 µM (inactive)
same,GI50,[30],11.3 µM (inactive)
same,GI50,[31],1.85 µM (inactive)
same,GI50,[32],15.5 µM (inactive)
same,GI50,[58],2.19 µM (inactive)
same,GI50,[33],12.4 µM (inactive)
same,GI50,[34],17.4 µM (inactive)
same,GI50,[35],13 µM (inactive)
same,GI50,[36],16.2 µM (inactive)
same,GI50,[37],14.5 µM (inactive)
same,GI50,[38],1.95 µM (inactive)
same,GI50,[39],1.65 µM (inactive)
same,GI50,[40],1.81 µM (inactive)
same,GI50,[41],2.31 µM (inactive)
same,GI50,[42],2.32 µM (inactive)
same,GI50,[43],3.66 µM (inactive)
same,GI50,[44],13.2 µM (inactive)
same,GI50,[45],7.24 µM (inactive)
same,GI50,[46],1.91 µM (inactive)
same,GI50,[47],3.74 µM (inactive)
same,GI50,[48],10.7 µM (inactive)
same,GI50,[49],15.6 µM (inactive)
same,GI50,[50],18.7 µM (inactive)
same,GI50,[51],9.73 µM (inactive)
same,GI50,[52],2.23 µM (inactive)
same,GI50,[59],1.87 µM (inactive)
same,GI50,[53],1.56 µM (inactive)
